Among the test systems are HCC 2998; OVCAR-3; HCT-15; UACC-257; NCI-H522; SNB-19; SN12C; UACC-62; OVCAR-8; CCRF-CEM; SK-MEL-2; NCI-H460; TK-10; SW-620; SK-OV-3; HL-60; 786-0; T47D; MDA-N.
What all share (experiment): growth of human tumour cells (NCI), 48 h

Structures are written as SMILES.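 Cells were grown in 96-well plates and exposed to each compound for 48 hours at five concentrations; endpoints were interpolated linearly between bracketing concentrations, or set to the highest concentration if not reached. At the GI50, growth is halved.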 Active and inactive are the calls of the source. Rule as the data show it: active = GI50 up to about 1.1 µM and inactive = higher. Where only a bound is given, the exact number is not on record here.

For the compound `COC(=O)C(/C(=N/N)C(=O)Nc1cc(Cl)ccc1Cl)c1nc2ccc([N+](=O)[O-])cc2nc1O` (stereo unspecified), the GI50 with HCC 2998 was 74.6 µM (inactive); in the assay with OVCAR-3, > 100 µM (inactive); in the assay on HCT-15, 76.4 µM; with UACC-257, > 100 µM (inactive); in the assay with NCI-H522 it was 21.3 µM (inactive); in the assay on SNB-19 it was > 100 µM (inactive). Further, the GI50 with SN12C was > 100 µM (inactive); in the assay on UACC-62, > 100 µM (inactive); in the assay on OVCAR-8, > 100 µM (inactive); in the assay with CCRF-CEM, 25 µM (inactive); with SK-MEL-2 it was > 100 µM (inactive); with NCI-H460, > 100 µM (inactive). Besides, the GI50 in the assay with TK-10, in the assay on SW-620, in the assay with SK-OV-3, with HL-60 and in the assay on 786-0 was > 100 µM (inactive) each time.
For `N#Cc1ccc(/C=N/C23CC4CC(CC(C4)C2)C3)cc1`, the GI50 with HCC 2998 was > 100 µM (inactive); with OVCAR-3, > 100 µM (inactive); with HCT-15 it was greater than 100 µM; with UACC-257 it was > 100 µM (inactive); in the assay with NCI-H522 it was > 100 µM (inactive); in the assay on SNB-19, > 100 µM (inactive). Also, the GI50 is > 100 µM (inactive) in the assay with SN12C; > 100 µM (inactive) in the assay with UACC-62; > 100 µM (inactive) in the assay on OVCAR-8; 96.8 µM (inactive) in the assay with CCRF-CEM; > 100 µM (inactive) in the assay with SK-MEL-2; > 100 µM (inactive) in the assay with NCI-H460. Also, the GI50 with TK-10 is > 100 µM (inactive); with SW-620 it was > 100 µM (inactive); in the assay on SK-OV-3, > 100 µM (inactive); in the assay on HL-60 it was 27 µM (inactive); in the assay with 786-0 it was > 100 µM (inactive).
For the compound `CCOC(=O)CCc1c(C(=O)OCC)[nH]c(/C=C2/NC(=O)C(C)=C2CC)c1C`, the GI50 in the assay on OVCAR-3 is 3.88 µM (inactive); in the assay on HCT-15, 3.47 µM; in the assay with UACC-257, 10.1 µM (inactive); in the assay with NCI-H522, 11.7 µM (inactive); in the assay on T47D, 2.11 µM (inactive); in the assay on SNB-19, 13.1 µM (inactive). Besides, the GI50 in the assay on SN12C was 16.9 µM (inactive); with UACC-62, 4.9 µM (inactive); in the assay with OVCAR-8, 31.9 µM (inactive); in the assay with SK-MEL-2 it was 18.3 µM (inactive); with NCI-H460, 32.7 µM (inactive); in the assay with TK-10, 24.7 µM (inactive). Further, the GI50 in the assay with SW-620 was 23.2 µM (inactive); in the assay with SK-OV-3 it was 34.7 µM (inactive); in the assay with HL-60, 5.01 µM (inactive); in the assay on MDA-N, 5.83 µM (inactive); in the assay on 786-0, 15.8 µM (inactive).
On to `CC(=O)C1C(=O)N(C(C)C)C[C@@H]2CCC(=O)C[C@H]12` (stereo partly specified), for which the GI50 in the assay with HCC 2998 was > 100 µM (inactive); with OVCAR-3, > 100 µM (inactive); in the assay with HCT-15 it was greater than 100 µM; in the assay on UACC-257 it was > 100 µM (inactive); with NCI-H522, > 100 µM (inactive); in the assay with SNB-19, > 100 µM (inactive). The GI50 in the assay on SN12C, in the assay on UACC-62, with OVCAR-8, in the assay with CCRF-CEM, in the assay with SK-MEL-2 and in the assay on NCI-H460 was > 100 µM (inactive) in each case. Moreover, the GI50 with TK-10, in the assay with SW-620, in the assay on SK-OV-3, in the assay on HL-60 and in the assay with 786-0 was > 100 µM (inactive) in each case.
Consider `O=C(NCc1ccccc1Cl)c1c(O)c2ccccc2[nH]c1=O`, for which the GI50 is 33.3 µM (inactive) in the assay on HCC 2998; 32 µM (inactive) with OVCAR-3; 42.8 µM in the assay with HCT-15; > 100 µM (inactive) in the assay with UACC-257; > 100 µM (inactive) with NCI-H522; 39.4 µM (inactive) with SNB-19. In addition, the GI50 is > 100 µM (inactive) in the assay with SN12C; 75 µM (inactive) with OVCAR-8; > 100 µM (inactive) in the assay with CCRF-CEM; 18.7 µM (inactive) in the assay on NCI-H460; 56.4 µM (inactive) in the assay with TK-10; 24.9 µM (inactive) with SW-620. The GI50 with HL-60 is > 100 µM (inactive); in the assay with MDA-N it was 79.1 µM (inactive); in the assay with 786-0, 16.8 µM (inactive).
In the case of `C=CNC(=O)NC(=O)CSc1nc(=O)c(-c2ccccc2NC(=O)C(F)(F)F)n[nH]1`, the GI50 in the assay with HCC 2998 was > 100 µM (inactive); in the assay with OVCAR-3, 38.3 µM (inactive); in the assay with HCT-15 it was greater than 100 µM; in the assay on NCI-H522, 51.6 µM (inactive); in the assay on SNB-19, 32.2 µM (inactive); in the assay with SN12C, > 100 µM (inactive). For the same compound, the GI50 in the assay with UACC-62 is > 100 µM (inactive); in the assay with OVCAR-8, > 100 µM (inactive); in the assay with CCRF-CEM, > 100 µM (inactive); in the assay with SK-MEL-2 it was > 100 µM (inactive); in the assay on NCI-H460, 48.4 µM (inactive); with TK-10, 68.9 µM (inactive). In addition, the GI50 is > 100 µM (inactive) with SW-620, 47.6 µM (inactive) in the assay on SK-OV-3 and 51.2 µM (inactive) in the assay with 786-0.
With `CCOC(=O)C1C2CCC1CC(=NNc1ccc([N+](=O)[O-])cc1[N+](=O)[O-])C2` (stereo unspecified), the GI50 with HCC 2998 is 45.1 µM (inactive); in the assay on OVCAR-3, > 50 µM (inactive); in the assay with HCT-15 it was greater than 50 µM; in the assay on UACC-257, > 50 µM (inactive); in the assay with NCI-H522, > 50 µM (inactive); with SNB-19, > 50 µM (inactive). For the same compound, the GI50 with SN12C, with UACC-62, in the assay with OVCAR-8, in the assay with CCRF-CEM, in the assay with SK-MEL-2 and with NCI-H460 was > 50 µM (inactive) each time. Further, the GI50 in the assay with TK-10, in the assay with SW-620, with SK-OV-3, with MDA-N and in the assay on 786-0 was > 50 µM (inactive) each time.
Take `O=C(CN1CCN(c2ccccc2)CC1)c1ccc2[nH]c(=O)oc2c1`: the GI50 in the assay with OVCAR-3 was > 100 µM (inactive); in the assay on HCT-15 it was greater than 100 µM; with UACC-257, > 100 µM (inactive); with SN12C, > 100 µM (inactive); in the assay with UACC-62, > 100 µM (inactive); in the assay with OVCAR-8, > 100 µM (inactive). Moreover, the GI50 in the assay with CCRF-CEM, in the assay on SK-MEL-2, in the assay on NCI-H460, in the assay on TK-10, in the assay with SW-620 and in the assay on SK-OV-3 was > 100 µM (inactive) in each case. The GI50 with HL-60, in the assay with MDA-N and in the assay on 786-0 was > 100 µM (inactive) each time.
For the compound `Cc1c2n(c(=O)[nH]c1=O)C1OC(CO)C(O2)C1O` (stereo unspecified), the GI50 in the assay on OVCAR-3 is > 100 µM (inactive); in the assay on HCT-15, greater than 100 µM; with UACC-257, > 100 µM (inactive); in the assay with NCI-H522 it was > 100 µM (inactive); with SNB-19 it was > 100 µM (inactive); with SN12C, > 100 µM (inactive). In addition, the GI50 with UACC-62, in the assay with OVCAR-8, with CCRF-CEM, in the assay with SK-MEL-2, in the assay with NCI-H460 and with TK-10 was > 100 µM (inactive) in each case. The GI50 with SW-620, in the assay on SK-OV-3, in the assay with HL-60 and in the assay with 786-0 was > 100 µM (inactive) in each case.
Take `COC(=O)Cc1cc(=O)oc2c1C(=O)CCC2`: the GI50 is > 100 µM (inactive) with HCC 2998; > 100 µM (inactive) in the assay with OVCAR-3; greater than 100 µM in the assay on HCT-15; > 100 µM (inactive) in the assay with UACC-257; > 100 µM (inactive) in the assay with NCI-H522; > 100 µM (inactive) in the assay with SNB-19. Also, the GI50 in the assay with SN12C, in the assay on UACC-62, with OVCAR-8, in the assay on CCRF-CEM, with SK-MEL-2 and with NCI-H460 was > 100 µM (inactive) in each case. Also, the GI50 in the assay with TK-10, in the assay on SW-620, in the assay on SK-OV-3, in the assay on HL-60 and with 786-0 was > 100 µM (inactive) each time.
For `Cc1c(C(=O)/C=C/c2c(Cl)cccc2Cl)c(=O)n(-c2ccccc2)n1C`, the GI50 in the assay with HCC 2998 is 23 µM (inactive); in the assay on OVCAR-3, 19.1 µM (inactive); in the assay on HCT-15 it was 19.5 µM; in the assay on UACC-257 it was 20.9 µM (inactive); in the assay on NCI-H522, 12.8 µM (inactive); in the assay on SNB-19 it was 31.9 µM (inactive). The GI50 in the assay with SN12C is 24.4 µM (inactive); in the assay on UACC-62 it was 21.6 µM (inactive); in the assay with OVCAR-8, 16.7 µM (inactive); with CCRF-CEM it was 2.74 µM (inactive); with SK-MEL-2 it was 26.1 µM (inactive); with NCI-H460, 11.4 µM (inactive). In addition, the GI50 in the assay with TK-10 is 54.7 µM (inactive); with SW-620 it was 7 µM (inactive); with SK-OV-3, 43 µM (inactive); with 786-0, 11.1 µM (inactive).
As to `COc1cc(O)c2c(c1)C(=O)C1=C(C2=O)C(O)C[C@@](C)(O)C1` (stereo partly specified), the GI50 with HCC 2998 was 1.47 µM (inactive); with OVCAR-3 it was 0.822 µM (active); in the assay with HCT-15 it was 0.358 µM; with UACC-257, 0.335 µM (active); in the assay on NCI-H522, 0.71 µM (active); in the assay with SNB-19, 4.34 µM (inactive). The GI50 is 1.29 µM (inactive) in the assay with SN12C; 1.37 µM (inactive) in the assay with UACC-62; 1.16 µM (inactive) in the assay on OVCAR-8; 2.39 µM (inactive) in the assay on CCRF-CEM; 1.63 µM (inactive) in the assay with SK-MEL-2; 1.92 µM (inactive) in the assay on NCI-H460. The GI50 is 1.98 µM (inactive) with TK-10; 0.441 µM (active) with SW-620; 5.9 µM (inactive) in the assay with SK-OV-3; 0.451 µM (active) in the assay with HL-60; 3.08 µM (inactive) in the assay with 786-0.

For the origin of these results see ChEMBL document CHEMBL1201862, “PubChem BioAssay data set” (2004).
